Test results: patent US6063814A, “Phorbol esters as anti-neoplastic and white blood cell elevating agents” (priority 1997, dated 2000)
Values joined by “and” are separate entries in the source; they are usually repeats but may differ in a detail not shown here. Equal entries are not always repeated.

Legend:
[1] = test system: leukemia (bone marrow myeloblast and promyelocyte); assay: Clinical treatment of leukemia patients with TPA; format: in vivo, humans; conditions: for bone marrow suppression, infection or bleeding: during and after treatment; for Spleen below the rib cage after treatment: 3 cm before
Description: The results obtained upon treatment of patients with TPA as presented in tabular form and in subsequent examples.
In the subjects identified as (1) through (5) below, chronic myelocytic leukemia had progressed to acute myelocytic leukemia before treatment with TPA.
Subject No. (1), patient No. 28879. Blood profile before TPA treatment: Hb: 28 g/L; WBC: 1.0×10^9 /L, platelet: 135×10^9 /L. Bone marrow profile before TPA treatment: myeloblast+promyelocyte: 30%. TPA treatment: 1 mg/week (0.25 mg administered four times) for two weeks. Blood profile after treatment: Hb: 86 g/L; WBC: 2.8×10^9 /L, platelet: 283×10^9 /L. Bone marrow profile after TPA treatment: myeloblast+promyelocyte: 2.5%.
Subject No. (2), patient No. 29926. Diagnosis: chronic myelocytic leukemia became acute myelocytic leukemia before treatment. Blood profile before TPA treatment: Hb: 94 g/L; WBC: 9.8×10^9 /L, platelet: 63×10^9 /L. Spleen: 3 cm below the rib cage. Bone marrow profile before TPA treatment: myeloblast+promyelocyte: 36%. TPA treatment: 1 mg/week for 5 weeks. Blood profile after treatment: Hb: 104 g/L; WBC: 4.9×10^9 /L, platelet: 80×10^9 /L. Spleen: 0.5 cm below the rib cage. Bone marrow profile after TPA treatment: myeloblast+promyelocyte: 3%.
Subject No. (3), patient No. 18102. Diagnosis: chronic myelocytic leukemia became acute myelocytic leukemia before treatment. Blood profile before TPA treatment: Hb: 70 g/L; WBC: 27.5×10^9 /L, platelet: 21×10^9 /L. Bone marrow profile before TPA treatment: myeloblast+promyelocyte: 90%. TPA treatment: 1 mg/week for 7 weeks. Blood profile after treatment: Hb: 96 g/L; WBC: 22×10^9 /L, platelet: 70×10^9 /L. Bone marrow profile after TPA treatment: myeloblast+promyelocyte: 2%.
Subject No. (4), patient No. 21315. Diagnosis: chronic myelocytic leukemia became acute myelocytic leukemia before treatment. Blood profile before TPA treatment: Hb: 87 g/L; WBC: 19×10^9 /L, platelet: 150×10^9 /L. Bone marrow profile before TPA treatment: myeloblast+promyelocyte: 67.5%. TPA treatment: 1 mg/week for 7 weeks. Blood profile after treatment: Hb: 45 g/L; WBC: 53.5×10^9 /L, platelet: 210×10^9 /L. Bone marrow profile after TPA treatment: myeloblast+promyelocyte: 4.5%.
Subject No. (5), patient No. 23965. Diagnosis: chronic myelocytic leukemia progressed to acute myelocytic leukemia. Blood profile before TPA treatment: Hb: 84 g/L; WBC: 36.6×10^9 /L, platelet: 290×10^9 /L. Bone marrow profile before TPA treatment: myeloblast+promyelocyte: 27.5%. TPA treatment: 1 mg/week for 2 weeks. Blood profile after treatment: Hb: 84 g/L; WBC: 27.3×10^9 /L, platelet: 170×10^9 /L. Bone marrow profile after TPA treatment: myeloblast+promyelocyte: 1.5%.
All the above patients had received various regimens of chemotherapy prior to the TPA treatment, including hydroxyurea, busulfan, and Ara-C, etc. but none was effective at the start of TPA treatment. Before the administration of TPA, patients received injection of 6×10^5 units of vitamin D3 (VD3)/person for 2 days; after the TPA administration, patients received i.v. infusion of 40 mg of Ara-C/d×3. […] These patients have been in clinical remission for over 6 months.
Subject No. (6), person. Diagnosed as AML-M3. Symptoms began in January, 1995. Blood profile: Hb:60 g/L, WBC: 0.4×10^9 /L, platelet: 40×10^9 /L. Bone marrow profile: myeloblast+promyelocyte: 48%. The TPA treatment period was 1 mg/week for three weeks, and 6×10^5 units VD3 /d×3 were injected prior to the treatment. […] The patient has been in remission after treatment for at least 6 months.
Subject No. (7), person. Diagnosis: MDS-REAB accompanied by an increased number of monocytes. […] The patient started to receive a combination treatment of 1,25-(OH)2 VD3 +TPA+low dose Ara-C. TPA dosage: 0.25-0.5 mg (1 mg per week) for eleven weeks. […]

[2] = test system: human leukemia cell line HL-60; conditions: cited from earlier work
HL-60 cells = assay: TPA + low doses of Ara-C, HL-60 differentiation; format: cell-based, human
From the text: (2) TPA+Low Doses of Ara-C:

[3] = subject 6, AML-M3, TPA 1 mg/week three weeks, VD3 prior
[4] = subject 7, MDS-REAB, 1,25-(OH)2 VD3+TPA+low dose Ara-C, eleven weeks
[5] = subject 7, combination with 1,25-(OH)2 VD3 and Ara-C
[6] = subject 7, combination with 1,25-(OH)2 VD3 and Ara-C, blood
[7] = subject 8, AML-M3, retinoic acid failed
[8] = subject 9, secondary aplastic anemia, TPA 0.25 mg×2
[9] = subject 10, CML, TPA 0.25 mg once
[10] = subject 10, CML, TPA 0.25 mg once, second day
[11] = subjects 1-5, VD3 before, Ara-C after TPA

CCCCCCCCCCCCCC(=O)O[C@@H]1[C@@H](C)[C@@]2(O)[C@@H](C=C(CO)C[C@]3(O)C(=O)C(C)=C[C@@H]23)[C@@H]2C(C)(C)[C@]12OC(C)=O [TPA, Phorbol 12-Myristate-13-Acetate]
Bone marrow myeloblast+promyelocyte after TPA treatment ([1]; CML progressed to AML, TPA 1 mg/week for 2-7 weeks, VD3 before, Ara-C after): 2.5% and 3% and 2% and 4.5% and 1.5%
duration of clinical remission ([1]; many of the patients, from first treatment): over six months
clinical remission ([1]; refractory leukemia patients): clinical remission was achieved in a relatively short time
bone marrow suppression, infection or bleeding ([1]; refractory leukemia patients): no bone marrow suppression, infection or bleeding
Spleen below the rib cage after treatment ([1]; subject 2, TPA 1 mg/week for 5 weeks): 0.5 cm
duration of remission ([1]; subject 6, AML-M3): at least 6 months
remission ([1]; subject 6, AML-M3): met the standard for AML-M3 remission
Bone marrow myeloblast+promyelocyte after first treatment period [1, 3]: 3%
Hb after first treatment period [1, 3]: 118 g/L
WBC after first treatment period [1, 3]: 4.1e+09 L⁻¹
platelet after first treatment period [1, 3]: 8e+10 L⁻¹
Hb after treatment [1, 4]: 42 g/L
WBC after treatment [1, 4]: 1.02e+10 L⁻¹
platelet after treatment [1, 4]: 3.4e+10 L⁻¹
Spleen below the rib cage after treatment [1, 4]: 0.5 cm
Bone marrow myeloblast after treatment [1, 5]: 4%
Bone marrow promyelocyte after treatment [1, 5]: 6%
Lymphocyte after treatment [1, 6]: 19%
Monocyte after treatment [1, 6]: 1%
Neutrophil after treatment [1, 6]: 80%
Promyelocytes in blood after treatment [1, 6]: not detected
WBC after TPA treatment [1, 7]: 2.2e+09 L⁻¹
platelet after TPA treatment [1, 7]: 2.23e+11 L⁻¹
Hb after TPA treatment [1, 8]: 32 g/L
platelet after TPA treatment [1, 8]: 5.7e+10 L⁻¹
Hb after treatment [1, 9]: 96 g/L
WBC after treatment [1, 9]: 2e+09 L⁻¹
platelet after treatment [1, 9]: 1.12e+11 L⁻¹
myeloblast+promyelocyte [1, 10]: 4%
myelocyte [1, 10]: 5%
clinical remission in bone marrow parameters [1, 11]: all achieved clinical remission in bone marrow parameters in a short time
duration of clinical remission [1, 11]: over 6 months
bone marrow suppression, infection or bleeding ([1]; subjects 1-5): no bone marrow suppression, nor infection or bleeding
differentiation to nondividing macrophage-like cells ([2]; Weinberg, Science 213:655-657, 1981): causes differentiation of cells of the human leukemia cell line HL-60 to nondividing macrophage-like cells
induction of differentiation ([2]; stable human promyelocytic leukemic cell line HL-60): induces differentiation
HL-60 cell differentiation (HL-60 cells; TPA alone, low dose 20 ng/ml): weak cell differentiation-inducing agent
HL-60 cell differentiation (HL-60 cells; combination of TPA and Ara-C): induced the HL-60 cells to differentiate synergistically
